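Exposure lasted 48 hours, with cells grown in 96-well plates and compounds tested at five concentrations. TGI: total growth inhibition.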
Legend:
Test in all cases: growth of human tumour cells (NCI), 48 h
OVCAR-8 ovarian = tested on: OVCAR-8 ovarian
SNB-19 CNS = tested on: SNB-19 CNS
U251 CNS = tested on: U251 CNS
HT29 colon = tested on: HT29 colon
A498 renal = tested on: A498 renal
MDA-MB-231 breast = tested on: MDA-MB-231 breast
A549 NSCLC = tested on: A549 NSCLC
OVCAR-5 ovarian = tested on: OVCAR-5 ovarian
UACC-257 melanoma = tested on: UACC-257 melanoma
BT-549 breast = tested on: BT-549 breast
LOX IMVI melanoma = tested on: LOX IMVI melanoma
SW-620 colon = tested on: SW-620 colon
OVCAR-3 ovarian = tested on: OVCAR-3 ovarian
SK-MEL-2 melanoma = tested on: SK-MEL-2 melanoma
HCT-15 colon = tested on: HCT-15 colon
SN12C renal = tested on: SN12C renal
HCC-2998 colon = tested on: HCC-2998 colon
ACHN renal = tested on: ACHN renal
SK-MEL-28 melanoma = tested on: SK-MEL-28 melanoma
SK-MEL-5 melanoma = tested on: SK-MEL-5 melanoma
HCT-116 colon = tested on: HCT-116 colon
SNB-75 CNS = tested on: SNB-75 CNS
HS 578T breast = tested on: HS 578T breast
KM12 colon = tested on: KM12 colon
T-47D breast = tested on: T-47D breast
HOP-92 NSCLC = tested on: HOP-92 NSCLC
SR leukemia = tested on: SR leukemia
MCF7 breast = tested on: MCF7 breast
NCI-H460 lung = tested on: NCI-H460 lung
HOP-62 NSCLC = tested on: HOP-62 NSCLC
NCI-H226 lung = tested on: NCI-H226 lung
MOLT-4 leukemia = tested on: MOLT-4 leukemia
CAKI-1 renal = tested on: CAKI-1 renal
UACC-62 melanoma = tested on: UACC-62 melanoma
M14 melanoma = tested on: M14 melanoma
K-562 leukemia = tested on: K-562 leukemia
UO-31 renal = tested on: UO-31 renal
DU-145 prostate = tested on: DU-145 prostate
NCI/ADR-RES ovarian = tested on: NCI/ADR-RES ovarian
SK-OV-3 ovarian = tested on: SK-OV-3 ovarian
PC-3 prostate = tested on: PC-3 prostate
786-0 renal = tested on: 786-0 renal
COLO 205 colon = tested on: COLO 205 colon
RPMI-8226 leukemia = tested on: RPMI-8226 leukemia
TK-10 renal = tested on: TK-10 renal
SF-268 CNS = tested on: SF-268 CNS
EKVX NSCLC = tested on: EKVX NSCLC
OVCAR-4 ovarian = tested on: OVCAR-4 ovarian
CCRF-CEM leukemia = tested on: CCRF-CEM leukemia
SF-295 CNS = tested on: SF-295 CNS
MDA-N = tested on: MDA-N
MDA-MB-435 = tested on: MDA-MB-435
IGROV1 ovarian = tested on: IGROV1 ovarian
NCI-H23 lung = tested on: NCI-H23 lung
SF-539 CNS = tested on: SF-539 CNS
MALME-3M melanoma = tested on: MALME-3M melanoma
RXF 393 renal = tested on: RXF 393 renal
NCI-H522 lung = tested on: NCI-H522 lung

Measured: TGI

COc1ccc(-n2cnc3c(NC(C)(C)C(=O)O)ncnc32)cc1
> 100 µM: OVCAR-8 ovarian | SNB-19 CNS | U251 CNS | HT29 colon | A498 renal | MDA-MB-231 breast | A549 NSCLC | OVCAR-5 ovarian | UACC-257 melanoma | BT-549 breast | LOX IMVI melanoma | SW-620 colon | OVCAR-3 ovarian | SK-MEL-2 melanoma | HCT-15 colon | SN12C renal | HCC-2998 colon | ACHN renal | SK-MEL-28 melanoma | SK-MEL-5 melanoma | HCT-116 colon | SNB-75 CNS | HS 578T breast | KM12 colon | T-47D breast | HOP-92 NSCLC | SR leukemia | MCF7 breast | NCI-H460 lung | HOP-62 NSCLC | NCI-H226 lung | MOLT-4 leukemia | CAKI-1 renal | UACC-62 melanoma | M14 melanoma | K-562 leukemia | UO-31 renal | DU-145 prostate | NCI/ADR-RES ovarian | SK-OV-3 ovarian | PC-3 prostate | 786-0 renal | COLO 205 colon | RPMI-8226 leukemia | TK-10 renal | SF-268 CNS | EKVX NSCLC | OVCAR-4 ovarian | CCRF-CEM leukemia | SF-295 CNS | MDA-N | MDA-MB-435 | IGROV1 ovarian | NCI-H23 lung

CCOC(=O)Oc1cc2c(ccn2C)c2c1c1ccccc1n2C(=O)OCC
> 100 µM: OVCAR-8 ovarian | SF-539 CNS | U251 CNS | HT29 colon | A498 renal | MDA-MB-231 breast | A549 NSCLC | OVCAR-5 ovarian | UACC-257 melanoma | BT-549 breast | LOX IMVI melanoma | MALME-3M melanoma | SW-620 colon | OVCAR-3 ovarian | SK-MEL-2 melanoma | HCT-15 colon | RXF 393 renal | SN12C renal | ACHN renal | SK-MEL-28 melanoma | SK-MEL-5 melanoma | HCT-116 colon | SNB-75 CNS | HS 578T breast | KM12 colon | NCI-H522 lung | T-47D breast | HOP-92 NSCLC | SR leukemia | MCF7 breast | NCI-H460 lung | HOP-62 NSCLC | NCI-H226 lung | MOLT-4 leukemia | CAKI-1 renal | UACC-62 melanoma | M14 melanoma | K-562 leukemia | UO-31 renal | DU-145 prostate | NCI/ADR-RES ovarian | SK-OV-3 ovarian | PC-3 prostate | 786-0 renal | COLO 205 colon | RPMI-8226 leukemia | TK-10 renal | SF-268 CNS | EKVX NSCLC | OVCAR-4 ovarian | CCRF-CEM leukemia | SF-295 CNS | MDA-N | MDA-MB-435 | IGROV1 ovarian | NCI-H23 lung

Source: PubChem BioAssay (NCI)
